What was measured:
[1] = test system: Pseudomonas aeruginosa; assay: Antibacterial activity against Pseudomonas aeruginosa ATCC 27853 = CCM 3955 assessed as inhibition of bacterial growth incubated for 24 hrs by microdilution assay; format: functional
[2] = test system: Staphylococcus aureus; assay: Antibacterial activity against Staphylococcus aureus ATCC 29213 = CCM 4223 assessed as inhibition of bacterial growth incubated for 24 hrs in presence of BSA by microdilution assay; format: functional
[3] = test system: Staphylococcus aureus; assay: Antibacterial activity against methicillin resistant Staphylococcus aureus 4591/A assessed as reduction in microbial growth incubated for 24 hrs by microdilution assay; format: functional
[4] = test system: Enterococcus faecalis; assay: Antibacterial activity against Enterococcus faecalis ATCC 29212 = CCM 4224 assessed as inhibition of bacterial growth incubated for 24 hrs by microdilution assay; format: functional
[5] = test system: Escherichia coli; assay: Antibacterial activity against Escherichia coli ATCC 25922 = CCM 3954 assessed as inhibition of bacterial growth incubated for 24 hrs by microdilution assay; format: functional
[6] = Hemolytic activity in human RBC assessed as haemoglobin release measured after 3 hr; format: toxicity, cell-based, Erythrocyte; settings: red blood cells (erythrocytes)
[7] = test system: Staphylococcus epidermidis; assay: Antibacterial activity against Staphylococcus epidermidis CCM 7221 assessed as inhibition of bacterial growth incubated for 24 hrs by microdilution assay; format: functional
[8] = test system: Escherichia coli; assay: Antibacterial activity against Escherichia coli ATCC 25922 = CCM 3954 assessed as inhibition of bacterial growth incubated for 24 hrs in presence of BSA by microdilution assay; format: functional
[9] = test system: Pseudomonas aeruginosa; assay: Antibacterial activity against multidrug-resistant Pseudomonas aeruginosa assessed as reduction in microbial growth incubated for 24 hrs by microdilution assay; format: functional
[10] = test system: Escherichia coli; assay: Antibacterial activity against multidrug-resistant Escherichia coli CE5556 expressing CTX-M-15 assessed as reduction in microbial growth incubated for 24 hrs by microdilution assay; format: functional
[11] = test system: Enterococcus faecium; assay: Antibacterial activity against vancomycin resistant Enterococcus faecium 419/ANA assessed as reduction in microbial growth incubated for 24 hrs by microdilution assay; format: functional
[12] = test system: Staphylococcus aureus; assay: Antibacterial activity against Staphylococcus aureus ATCC 29213 = CCM 4223 assessed as inhibition of bacterial growth incubated for 24 hrs by microdilution assay; format: functional
[13] = Cytotoxicity against human HepG2 cells assessed as reduction in cell viability; format: toxicity, cell-based
[14] = Gradient chromatographic hydrophobicity index of the compound at pH 3.7 by HPLC analysis; format: ADME

CCCCOP(=O)(CCN(CCN)CCN)OCCCCCCCCCCOP(=O)(CCN(CCN)CCN)OCCCC.Cl.Cl.Cl.Cl.Cl.Cl (configuration not stated)
MIC [1]: 64 µg/mL
MIC [2]: > 128 µg/mL
MIC [3]: 128 µg/mL
MIC [4]: 64 µg/mL
MIC [5]: 64 µg/mL
HC50 at 3 h [6]: 55 µg/mL
MIC [7]: 64 µg/mL
MIC [8]: > 128 µg/mL
MIC [9]: 128 µg/mL
MIC [10]: > 128 µg/mL
MIC [11]: 128 µg/mL
MIC [12]: 64 µg/mL
CC50 [13]: > 99 µM
CHI [14]: 34.2

Cl.Cl.Cl.Cl.Cl.Cl.NCCCN(CCCN)CCP(=O)(OCCCOP(=O)(CCN(CCCN)CCCN)OCCC12CC3CC(CC(C3)C1)C2)OCCC12CC3CC(CC(C3)C1)C2 (configuration not stated)
MIC [1]: 16 µg/mL
MIC [2]: 2 µg/mL
MIC [3]: 1 µg/mL
MIC [4]: 2 µg/mL
MIC [5]: 2 µg/mL
HC50 at 3 h [6]: 196 µg/mL
MIC [7]: 2 µg/mL
MIC [8]: 1 µg/mL
MIC [9]: 4 µg/mL
MIC [10]: 2 µg/mL
MIC [11]: 32 µg/mL
MIC [12]: 1 µg/mL
CC50 [13]: 93.6 µM
CHI [14]: 36.9

CCCCCCCCOP(=O)(CCN(CCN)CCN)OCCCCCCOP(=O)(CCN(CCN)CCN)OCCCCCCCC.Cl.Cl.Cl.Cl.Cl.Cl (configuration not stated)
MIC [1]: 2 µg/mL
MIC [2]: 5 µg/mL
MIC [3]: 0.5 µg/mL
MIC [4]: 1 µg/mL
MIC [5]: 1 µg/mL
HC50 at 3 h [6]: 79 µg/mL
MIC [7]: 0.5 µg/mL
MIC [8]: 1 µg/mL
MIC [9]: 2 µg/mL
MIC [10]: 1 µg/mL
MIC [11]: 4 µg/mL
MIC [12]: 0.5 µg/mL
CC50 [13]: 80.6 µM
CHI [14]: 43.2

CC(C)COP(=O)(CCN(CCCN)CCCN)OCCCCCCCCCCCCOP(=O)(CCN(CCCN)CCCN)OCC(C)C.Cl.Cl.Cl.Cl.Cl.Cl (configuration not stated)
MIC [1]: 32 µg/mL
MIC [2]: 16 µg/mL
MIC [3]: 4 µg/mL
MIC [4]: 32 µg/mL
MIC [5]: 128 µg/mL
HC50 at 3 h [6]: 170 µg/mL
MIC [7]: 1 µg/mL
MIC [8]: > 128 µg/mL
MIC [9]: 16 µg/mL
MIC [10]: > 128 µg/mL
MIC [11]: 128 µg/mL
MIC [12]: 4 µg/mL
CC50 [13]: 56.2 µM
CHI [14]: 31.4

Cl.Cl.Cl.Cl.Cl.Cl.NCCCN(CCCN)CCP(=O)(OCCCCCOP(=O)(CCN(CCCN)CCCN)OCC12CC3CC(CC(C3)C1)C2)OCC12CC3CC(CC(C3)C1)C2 (configuration not stated)
MIC [1]: 32 µg/mL
MIC [2]: 2 µg/mL
MIC [3]: 2 µg/mL
MIC [4]: 4 µg/mL
MIC [5]: 2 µg/mL
HC50 at 3 h [6]: 415 µg/mL
MIC [7]: 2 µg/mL
MIC [8]: 2 µg/mL
MIC [9]: 8 µg/mL
MIC [10]: 4 µg/mL
MIC [11]: 64 µg/mL
MIC [12]: 2 µg/mL
CC50 [13]: > 99 µM
CHI [14]: 34.1

CCCC/C=C\CCOP(=O)(CCN(CCCN)CCCN)OCCCCCCOP(=O)(CCN(CCCN)CCCN)OCC/C=C\CCCC.Cl.Cl.Cl.Cl.Cl.Cl (configuration not stated)
MIC [1]: 16 µg/mL
MIC [2]: 4 µg/mL
MIC [3]: 1 µg/mL
MIC [4]: 16 µg/mL
MIC [5]: 2 µg/mL
HC50 at 3 h [6]: 34.8 µg/mL
MIC [7]: 0.5 µg/mL
MIC [8]: 4 µg/mL
MIC [9]: 16 µg/mL
MIC [10]: 2 µg/mL
MIC [11]: 64 µg/mL
MIC [12]: 1 µg/mL
CC50 [13]: 92.5 µM
CHI [14]: 33.8

CCCCC/C=C\CCOP(=O)(CCN(CCCN)CCCN)OCCCCCOP(=O)(CCN(CCCN)CCCN)OCC/C=C\CCCCC.Cl.Cl.Cl.Cl.Cl.Cl (configuration not stated)
MIC [1]: 4 µg/mL
MIC [2]: 2 µg/mL
MIC [3]: 1 µg/mL
MIC [4]: 4 µg/mL
MIC [5]: 2 µg/mL
HC50 at 3 h [6]: > 500 µg/mL
MIC [7]: 1 µg/mL
MIC [8]: 1 µg/mL
MIC [9]: 4 µg/mL
MIC [10]: 1 µg/mL
MIC [11]: 32 µg/mL
MIC [12]: 1 µg/mL
CC50 [13]: 97.8 µM
CHI [14]: 37.2

CCCCCCOP(=O)(CCN(CCCN)CCCN)OCCCCCCCCOP(=O)(CCN(CCCN)CCCN)OCCCCCC.Cl.Cl.Cl.Cl.Cl.Cl (configuration not stated)
MIC [1]: 16 µg/mL
MIC [2]: 2 µg/mL
MIC [3]: 2 µg/mL
MIC [4]: 16 µg/mL
MIC [5]: 1 µg/mL
HC50 at 3 h [6]: > 500 µg/mL
MIC [7]: 0.5 µg/mL
MIC [8]: 8 µg/mL
MIC [9]: 64 µg/mL
MIC [10]: 8 µg/mL
MIC [11]: > 128 µg/mL
MIC [12]: 1 µg/mL
CC50 [13]: > 99 µM
CHI [14]: 31.4

Source: ChEMBL document CHEMBL5120927, “LEGO-Lipophosphonoxins: A Novel Approach in Designing Membrane Targeting Antimicrobials” (J Med Chem, 2022)
